Measurements published in ChEMBL document CHEMBL1128572, “Synthesis and biology of 1D-3-deoxyphosphatidylinositol: a putative antimetabolite of phosphatidylinositol-3-phosphate and an inhibitor of cancer cell colony formation” (J Med Chem, 1995).

Columns and labels:
HT-29 = test: Inhibition of colony formation of […] human colon carcinoma cell lines; type: functional, cell-based
[1] = Inhibition of murine Phosphatidylinositol 3-kinase; design: species or system Mus musculus
[2] = Inhibition of murine Phosphatidylinositol 3-kinase (No effect); design: species or system Mus musculus

| IC50 (HT-29) | IC50 [1] | IC50 [2] | SMILES |
| --- | --- | --- | --- |
| 37 µM | 30 µM | – | CCCCCCCCCCCCCCCC(=O)OCC(COP(=O)(O)OC1C(O)C(O)C(O)C(F)C1O)OC(=O)CCCCCCCCCCCCCCC (centres undefined) |
| 35 µM | – | Not Active | CCCCCCCCCCCCCCCC(=O)OCC(COP(=O)(O)O[C@H]1[C@@H](O)[C@@H](O)[C@H](O)C[C@H]1O)OC(=O)CCCCCCCCCCCCCCC (some centres undefined) |
